# In paper PMC7577350 (ACS chemical biology, 2013):
# Where two headings read alike, the source gives them in different places. Numbered stars: 1 amine (or outer) side, 2 acyl side, 3 side chain; on linkers, the order of the positions; unused ones are H or OH. Bridge positions count the residues as written; N and C are the ends. Square brackets hold non-standard residues; d marks the D form. Peptide text beside a SMILES is read from it. Nle(6-ylidene) = O=C([C@H](CCCC=[*:3])N[*:1])[*:2]; Gly(pent-4-enyl) = C=CCCC[C@H](N)C(=O)O
# Legend:
# HIV-1 NL4-3 = test: MT-4 Luc assay; format: cell-based; settings: MT-4 Luc cells; for concentrations at which significant anti-HIV activity was shown: luciferase signal
# HIV-1 IN [1] = biological target: T1, HIV-1 IN (Human immunodeficiency virus type 1 group M subtype B, UniProt P04585); test: Integrase assay, strand transfer reaction; format: biochemical
# HIV-1 IN [2] = biological target: T1, HIV-1 IN; test: Integrase assay, 3′-end processing reaction; format: biochemical
# HIV-1 (NL4-3 strain) [3] = test: MTT anti-HIV assay; format: cell-based; settings: read-out: EC50 (μM) MTT assay; MT-4 cells, HIV-1 NL4-3, Table 3
# HIV-1 (NL4-3 strain) [4] = format: cell-based; settings: read-out: EC50 (μM) p24 assay, MT-4 cells
# MTT cytotoxicity assay = format: cell-based
# mock-infected MT-4 cells = test: MTT cytotoxicity assay; format: cell-based
# [5] = CC50 (μM) MTT assay, mock infected MT-4 cells, Table 3
# [6] = CC50 (μM) MTT assay, mock infected MT-4 cells, Table 4
# [7] = both 3′-end processing and strand transfer reactions
smiles,measurement,setting,value
CC[C@H](C)[C@H](NC(=O)[C@H](C)NC(=O)[C@H](CCC(=O)O)NC(C)=O)C(=O)N[C@H](C(=O)N[C@@H](CCCNC(=N)N)C(=O)N[C@H](C(=O)N[C@@H](CC(C)C)C(=O)N[C@@H](CCC(N)=O)C(=O)N[C@@H](CCC(N)=O)C(=O)N[C@@H](CC(C)C)C(=O)N[C@@H](CC(C)C)C(=O)N[C@@H](Cc1ccccc1)C(=O)N[C@H](C(=O)N[C@@H](Cc1c[nH]cn1)C(=O)N[C@@H](Cc1ccccc1)C(=O)N[C@@H](CCCNC(=N)N)C(=O)N[C@H](C(=O)NCC(N)=O)[C@@H](C)CC)[C@@H](C)CC)[C@@H](C)CC)[C@@H](C)CC [compound 1],anti-HIV activity at concentrations below 10 μM,HIV-1 NL4-3; below 10 μM,no significant anti-HIV activity
same,IC50,"HIV-1 IN [1]; IC50 (μM) strand transfer, Table 3 batch",1.34 ± 0.2 µM
same,IC50,"HIV-1 IN [1]; IC50 (μM) strand transfer, Table 4 batch",2.2 ± 0.2 µM
same,IC50,"HIV-1 IN [1]; IC50 strand transfer, Table 2",1.1 ± 0.08 µM
same,IC50,"HIV-1 IN [2]; IC50 3′-end processing, Table 2",2.6 ± 0.2 µM
same,IC50,"HIV-1 IN [2]; IC50 (μM) 3′-end processing, Table 3 batch",1.62 ± 0.26 µM
same,IC50,"HIV-1 IN [2]; IC50 (μM) 3′-end processing, Table 4 batch",2 ± 0.2 µM
same,EC50,HIV-1 (NL4-3 strain) [3],> 10 µM
same,EC50,"HIV-1 (NL4-3 strain) [4]; HIV-1 NL4-3, Table 3",> 10 µM
same,EC50,"HIV-1 (NL4-3 strain) [4]; HIV-1 NL4-3, Table 4",> 20 µM
same,CC50,MTT cytotoxicity assay; [5],> 10 µM
C=CCCC[C@H](NC(=O)[C@H](CC(C)C)NC(=O)[C@@H](NC(=O)[C@H](CCCNC(=N)N)NC(=O)[C@H](CCCC=C)NC(=O)[C@@H](NC(=O)[C@H](C)NC(=O)[C@H](CCC(=O)O)NC(C)=O)[C@@H](C)CC)[C@@H](C)CC)C(=O)N[C@@H](CCC(N)=O)C(=O)N[C@@H](CC(C)C)C(=O)N[C@@H](CC(C)C)C(=O)N[C@@H](Cc1ccccc1)C(=O)N[C@H](C(=O)N[C@@H](Cc1c[nH]cn1)C(=O)N[C@@H](Cc1ccccc1)C(=O)N[C@@H](CCCNC(=N)N)C(=O)N[C@H](C(=O)NCC(=O)N[C@@H](CCCNC(=N)N)C(=O)N[C@@H](CCC(=O)O)C(=O)N[C@@H](CCCNC(=N)N)C(=O)N[C@@H](CCC(=O)O)C(=O)N[C@@H](CCCNC(=N)N)C(=O)N[C@@H](CCC(=O)O)C(=O)N[C@@H](CCCNC(=N)N)C(=O)N[C@@H](CCC(=O)O)C(N)=O)[C@@H](C)CC)[C@@H](C)CC [compound 19] (Ac-EAI[Gly(pent-4-enyl)]RIL[Gly(pent-4-enyl)]QLLFIHFRIGRERERERE-NH2),concentrations at which significant anti-HIV activity was shown,HIV-1 NL4-3,10 µM
same,CC50,MTT cytotoxicity assay; [5],> 10 µM
CC[C@H](C)[C@H](NC(=O)[C@H](C)NC(=O)[C@H](CCC(=O)O)NC(C)=O)C(=O)N[C@H]1CCCC=CCCC[C@@H](C(=O)N[C@@H](CCC(N)=O)C(=O)N[C@@H](CC(C)C)C(=O)N[C@@H](CC(C)C)C(=O)N[C@@H](Cc2ccccc2)C(=O)N[C@H](C(=O)N[C@@H](Cc2c[nH]cn2)C(=O)N[C@@H](Cc2ccccc2)C(=O)N[C@@H](CCCNC(=N)N)C(=O)N[C@H](C(=O)NCC(=O)N[C@@H](CCCNC(=N)N)C(=O)N[C@@H](CCCNC(=N)N)C(=O)N[C@@H](CCCNC(=N)N)C(=O)N[C@@H](CCCNC(=N)N)C(=O)N[C@@H](CCCNC(=N)N)C(=O)N[C@@H](CCCNC(=N)N)C(N)=O)[C@@H](C)CC)[C@@H](C)CC)NC(=O)[C@H](CC(C)C)NC(=O)[C@H]([C@@H](C)CC)NC(=O)[C@H](CCCNC(=N)N)NC1=O [compound 22] (Ac-EAI[Nle(6-ylidene)]RIL[Nle(6-ylidene)]QLLFIHFRIGRRRRRR-NH2; staple 4-8),× higher inhibitory levels than compounds 20 and 21,HIV-1 IN [2]; both reactions,2 ×
same,CC50,MTT cytotoxicity assay; [6],13 µM
CC[C@H](C)[C@H](NC(=O)[C@H](C)NC(=O)[C@H](CCC(=O)O)NC(C)=O)C(=O)N[C@H](C(=O)N[C@@H](CCCNC(=N)N)C(=O)N[C@H](C(=O)N[C@@H](CC(C)C)C(=O)N[C@@H](CCC(N)=O)C(=O)N[C@@H](CCC(N)=O)C(=O)N[C@@H](CC(C)C)C(=O)N[C@@H](CC(C)C)C(=O)N[C@@H](Cc1ccccc1)C(=O)N[C@H](C(=O)N[C@@H](Cc1c[nH]cn1)C(=O)N[C@@H](Cc1ccccc1)C(=O)N[C@@H](CCCNC(=N)N)C(=O)N[C@H](C(=O)NCC(=O)N[C@@H](CCCNC(=N)N)C(=O)N[C@@H](CCCNC(=N)N)C(=O)N[C@@H](CCCNC(=N)N)C(=O)N[C@@H](CCCNC(=N)N)C(=O)N[C@@H](CCCNC(=N)N)C(=O)N[C@@H](CCCNC(=N)N)C(=O)N[C@@H](CCCNC(=N)N)C(=O)N[C@@H](CCCNC(=N)N)C(N)=O)[C@@H](C)CC)[C@@H](C)CC)[C@@H](C)CC)[C@@H](C)CC [compound 2],concentrations at which significant anti-HIV activity was shown,HIV-1 NL4-3,above 2.5 μM
same,inhibitory levels × higher than those of compound 1,HIV-1 IN [2]; [7],approximately 30 ×
same,CC50,MTT cytotoxicity assay,5.91 µM
CC[C@H](C)[C@H](NC(=O)[C@H](C)NC(=O)[C@H](CCC(=O)O)NC(C)=O)C(=O)N[C@H]1CCCC=CCCC[C@@H](C(=O)N[C@@H](CCC(N)=O)C(=O)N[C@@H](CC(C)C)C(=O)N[C@@H](CC(C)C)C(=O)N[C@@H](Cc2ccccc2)C(=O)N[C@H](C(=O)N[C@@H](Cc2c[nH]cn2)C(=O)N[C@@H](Cc2ccccc2)C(=O)N[C@@H](CCCNC(=N)N)C(=O)N[C@H](C(=O)NCC(=O)N[C@@H](CCCNC(=N)N)C(=O)N[C@@H](CCCNC(=N)N)C(=O)N[C@@H](CCCNC(=N)N)C(=O)N[C@@H](CCCNC(=N)N)C(N)=O)[C@@H](C)CC)[C@@H](C)CC)NC(=O)[C@H](CC(C)C)NC(=O)[C@H]([C@@H](C)CC)NC(=O)[C@H](CCCNC(=N)N)NC1=O [compound 20] (Ac-EAI[Nle(6-ylidene)]RIL[Nle(6-ylidene)]QLLFIHFRIGRRRR-NH2; staple 4-8),× higher inhibition than compound 6S,HIV-1 IN [2]; [7],3–6 ×
same,CC50,MTT cytotoxicity assay; [6],16 µM
CC[C@H](C)[C@H](NC(=O)[C@H](C)NC(=O)[C@H](CCC(=O)O)NC(C)=O)C(=O)N[C@H]1CCCC=CCCC[C@@H](C(=O)N[C@@H](CCC(N)=O)C(=O)N[C@@H](CC(C)C)C(=O)N[C@@H](CC(C)C)C(=O)N[C@@H](Cc2ccccc2)C(=O)N[C@H](C(=O)N[C@@H](Cc2c[nH]cn2)C(=O)N[C@@H](Cc2ccccc2)C(=O)N[C@@H](CCCNC(=N)N)C(=O)N[C@H](C(=O)NCC(=O)N[C@@H](CCCNC(=N)N)C(=O)N[C@@H](CCCNC(=N)N)C(=O)N[C@@H](CCCNC(=N)N)C(=O)N[C@@H](CCCNC(=N)N)C(=O)N[C@@H](CCCNC(=N)N)C(=O)N[C@@H](CCCNC(=N)N)C(=O)N[C@@H](CCCNC(=N)N)C(N)=O)[C@@H](C)CC)[C@@H](C)CC)NC(=O)[C@H](CC(C)C)NC(=O)[C@H]([C@@H](C)CC)NC(=O)[C@H](CCCNC(=N)N)NC1=O [compound 23] (Ac-EAI[Nle(6-ylidene)]RIL[Nle(6-ylidene)]QLLFIHFRIGRRRRRRR-NH2; staple 4-8),CC50,MTT cytotoxicity assay; [6],12 µM
CC[C@H](C)[C@H](NC(=O)[C@H](C)NC(=O)[C@H](CCC(=O)O)NC(C)=O)C(=O)N[C@H]1CCCC=CCCC[C@@H](C(=O)N[C@@H](CCC(N)=O)C(=O)N[C@@H](CC(C)C)C(=O)N[C@@H](CC(C)C)C(=O)N[C@@H](Cc2ccccc2)C(=O)N[C@H](C(=O)N[C@@H](Cc2c[nH]cn2)C(=O)N[C@@H](Cc2ccccc2)C(=O)N[C@@H](CCCNC(=N)N)C(=O)N[C@H](C(=O)NCC(=O)N[C@@H](CCCNC(=N)N)C(=O)N[C@@H](CCCNC(=N)N)C(=O)N[C@@H](CCCNC(=N)N)C(=O)N[C@@H](CCCNC(=N)N)C(=O)N[C@@H](CCCNC(=N)N)C(N)=O)[C@@H](C)CC)[C@@H](C)CC)NC(=O)[C@H](CC(C)C)NC(=O)[C@H]([C@@H](C)CC)NC(=O)[C@H](CCCNC(=N)N)NC1=O [compound 21] (Ac-EAI[Nle(6-ylidene)]RIL[Nle(6-ylidene)]QLLFIHFRIGRRRRR-NH2; staple 4-8),× higher inhibition than compound 6S,HIV-1 IN [2]; [7],3–6 ×
same,CC50,MTT cytotoxicity assay; [6],15 µM
CC[C@H](C)[C@H](NC(=O)[C@H](C)NC(=O)[C@H](CCC(=O)O)NC(C)=O)C(=O)N[C@H]1CCCC=CCCC[C@@H](C(=O)N[C@@H](CCC(N)=O)C(=O)N[C@@H](CC(C)C)C(=O)N[C@@H](CC(C)C)C(=O)N[C@@H](Cc2ccccc2)C(=O)N[C@H](C(=O)N[C@@H](Cc2c[nH]cn2)C(=O)N[C@@H](Cc2ccccc2)C(=O)N[C@@H](CCCNC(=N)N)C(=O)N[C@H](C(=O)NCC(=O)N[C@@H](CCCNC(=N)N)C(=O)N[C@@H](CCCNC(=N)N)C(=O)N[C@@H](CCCNC(=N)N)C(=O)N[C@@H](CCCNC(=N)N)C(=O)N[C@@H](CCCNC(=N)N)C(=O)N[C@@H](CCCNC(=N)N)C(=O)N[C@@H](CCCNC(=N)N)C(=O)N[C@@H](CCCNC(=N)N)C(N)=O)[C@@H](C)CC)[C@@H](C)CC)NC(=O)[C@H](CC(C)C)NC(=O)[C@H]([C@@H](C)CC)NC(=O)[C@H](CCCNC(=N)N)NC1=O [compound 17] (Ac-EAI[Nle(6-ylidene)]RIL[Nle(6-ylidene)]QLLFIHFRIGRRRRRRRR-NH2; staple 4-8),concentrations at which significant anti-HIV activity was shown,HIV-1 NL4-3,above 1.25 μM
same,CC50,MTT cytotoxicity assay; [5],7.04 µM
same,CC50,MTT cytotoxicity assay; [6],6.9 µM
CC[C@H](C)[C@H](NC(=O)[C@H](C)NC(=O)[C@H](CCC(=O)O)NC(C)=O)C(=O)N[C@H]1CCCC=CCCC[C@@H](C(=O)N[C@@H](CCC(N)=O)C(=O)N[C@@H](CC(C)C)C(=O)N[C@@H](CC(C)C)C(=O)N[C@@H](Cc2ccccc2)C(=O)N[C@H](C(=O)N[C@@H](Cc2c[nH]cn2)C(=O)N[C@@H](Cc2ccccc2)C(=O)N[C@@H](CCCNC(=N)N)C(=O)N[C@H](C(=O)NCC(=O)N[C@@H](CCCNC(=N)N)C(=O)N[C@@H](CCC(=O)O)C(=O)N[C@@H](CCCNC(=N)N)C(=O)N[C@@H](CCC(=O)O)C(=O)N[C@@H](CCCNC(=N)N)C(=O)N[C@@H](CCC(=O)O)C(=O)N[C@@H](CCCNC(=N)N)C(=O)N[C@@H](CCC(=O)O)C(N)=O)[C@@H](C)CC)[C@@H](C)CC)NC(=O)[C@H](CC(C)C)NC(=O)[C@H]([C@@H](C)CC)NC(=O)[C@H](CCCNC(=N)N)NC1=O [compound 18] (Ac-EAI[Nle(6-ylidene)]RIL[Nle(6-ylidene)]QLLFIHFRIGRERERERE-NH2; staple 4-8),concentrations at which significant anti-HIV activity was shown,HIV-1 NL4-3,above 5 μM
same,CC50,MTT cytotoxicity assay; [5],> 10 µM
"Cc1cn([C@H]2C[C@H](N=[N+]=[N-])[C@@H](CO)O2)c(=O)[nH]c1=O [AZT, reference compound]",EC50,HIV-1 (NL4-3 strain) [3],0.07 µM
same,EC50,"HIV-1 (NL4-3 strain) [4]; HIV-1 NL4-3, Table 3",0.02 µM
same,EC50,"HIV-1 (NL4-3 strain) [4]; HIV-1 NL4-3, Table 4",0.29 µM
same,CC50,mock-infected MT-4 cells,> 100 µM
